For 9 compounds, GI50 and TGI results are on record in PubChem BioAssay (NCI).

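Protocol summary: plate cells (96-well), add compound at 5 concentrations, incubate 48 h, interpolate endpoints linearly. At the GI50, growth is halved. At the TGI there is no net growth.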

The first assay deals with SF-268 CNS. The assay is described as follows: inhibition of tumour cell growth, NCI panel, 48 h.
As for `CCCC(C)c1ccc(OCCCCCCN2CCNCC2)cc1` (centres undefined), the GI50 is 2970 nM and the TGI came out at 9.89 µM.

In the case of `CCC1C[N+]23CCc4c([nH]c5ccccc45)C2CC1CC3` (centres undefined), the TGI is greater than 100 µM.

`CC1=C2C(O)C(C(C)C(=O)N(C)C)CCC2(C)C=CC1=O` (centres undefined) showed a TGI greater than 100 µM.

The compound `Cc1ccc(S(=O)(=O)Nc2cccc3c(=O)[nH]cnc23)cc1` showed a TGI greater than 100 µM.

As to `O=C1C=C(C2OC(CO)C(O)C2O)C(=O)N1` (centres undefined), the TGI was greater than 100 µM.

In a further assay the test system is SF-295 CNS. The assay is described as follows: inhibition of tumour cell growth, NCI panel, 48 h.
The compound `C=C1C(=O)OC2/C=C(\C(=O)O)CC/C=C(\C)CC(OC(=O)/C=C(\C)CC)C12` (centres undefined) returned a TGI of 31.3 µM.

In turn, `O=C(c1ccccc1)c1ccc2n[se]nc2c1` registered a TGI of 37 µM.

For the compound `CC(=O)C(C(c1ccccc1)N1CCOCC1)N1CCOCC1` (centres undefined), the TGI was greater than 100 µM.

Turning to `CCOP(=Nc1ccc(N(C)C)cc1)(OCC)OCC`, the TGI was greater than 100 µM.

For `CCCC(C)c1ccc(OCCCCCCN2CCNCC2)cc1` (centres undefined), the GI50 is 1820 nM and the TGI is 3.44 µM.

For the compound `CCC1C[N+]23CCc4c([nH]c5ccccc45)C2CC1CC3` (centres undefined), the TGI was greater than 100 µM.

`CC1=C2C(O)C(C(C)C(=O)N(C)C)CCC2(C)C=CC1=O` (centres undefined) showed a TGI greater than 100 µM.

`Cc1ccc(S(=O)(=O)Nc2cccc3c(=O)[nH]cnc23)cc1` registered a TGI greater than 100 µM.

With `O=C1C=C(C2OC(CO)C(O)C2O)C(=O)N1` (centres undefined), the TGI is greater than 100 µM.

The test system of a further assay is SK-MEL-2 melanoma. The assay is described as follows: inhibition of tumour cell growth, NCI panel, 48 h.
In turn, `C=C1C(=O)OC2/C=C(\C(=O)O)CC/C=C(\C)CC(OC(=O)/C=C(\C)CC)C12` (centres undefined) showed a TGI of 28.7 µM.

`O=C(c1ccccc1)c1ccc2n[se]nc2c1` yielded a TGI greater than 100 µM.

Consider `CC(=O)C(C(c1ccccc1)N1CCOCC1)N1CCOCC1` (centres undefined), for which the TGI is greater than 100 µM.

As for `CCOP(=Nc1ccc(N(C)C)cc1)(OCC)OCC`, the TGI is greater than 100 µM.

`CCC1C[N+]23CCc4c([nH]c5ccccc45)C2CC1CC3` (centres undefined) showed a TGI greater than 100 µM.

Take `CC1=C2C(O)C(C(C)C(=O)N(C)C)CCC2(C)C=CC1=O` (centres undefined): the TGI is greater than 100 µM.

Regarding `Cc1ccc(S(=O)(=O)Nc2cccc3c(=O)[nH]cnc23)cc1`, the TGI was greater than 100 µM.

The compound `O=C1C=C(C2OC(CO)C(O)C2O)C(=O)N1` (centres undefined) gave a TGI greater than 100 µM.

Another assay deals with SK-MEL-28 melanoma. The assay is described as follows: inhibition of tumour cell growth, NCI panel, 48 h.
For `C=C1C(=O)OC2/C=C(\C(=O)O)CC/C=C(\C)CC(OC(=O)/C=C(\C)CC)C12` (centres undefined), the TGI is 34.2 µM.

`O=C(c1ccccc1)c1ccc2n[se]nc2c1` returned a TGI greater than 100 µM.

As for `CC(=O)C(C(c1ccccc1)N1CCOCC1)N1CCOCC1` (centres undefined), the TGI is greater than 100 µM.

`CCOP(=Nc1ccc(N(C)C)cc1)(OCC)OCC`: the TGI is greater than 100 µM.

Turning to `CCCC(C)c1ccc(OCCCCCCN2CCNCC2)cc1` (centres undefined), the GI50 was 1840 nM and the TGI amounted to 3.65 µM.

The compound `CCC1C[N+]23CCc4c([nH]c5ccccc45)C2CC1CC3` (centres undefined) yielded a TGI greater than 100 µM.

Consider `CC1=C2C(O)C(C(C)C(=O)N(C)C)CCC2(C)C=CC1=O` (centres undefined), for which the TGI was greater than 100 µM.

Consider `Cc1ccc(S(=O)(=O)Nc2cccc3c(=O)[nH]cnc23)cc1`, for which the TGI was greater than 100 µM.

The compound `O=C1C=C(C2OC(CO)C(O)C2O)C(=O)N1` (centres undefined) had a TGI greater than 100 µM.

A further assay has as its system SK-MEL-5 melanoma. The assay is described as follows: inhibition of tumour cell growth, NCI panel, 48 h.
As for `C=C1C(=O)OC2/C=C(\C(=O)O)CC/C=C(\C)CC(OC(=O)/C=C(\C)CC)C12` (centres undefined), the TGI worked out at 32.9 µM.

The compound `O=C(c1ccccc1)c1ccc2n[se]nc2c1` registered a TGI greater than 100 µM.

`CC(=O)C(C(c1ccccc1)N1CCOCC1)N1CCOCC1` (centres undefined): the TGI was greater than 100 µM.

`CCOP(=Nc1ccc(N(C)C)cc1)(OCC)OCC`: the TGI is greater than 100 µM.

With `CCCC(C)c1ccc(OCCCCCCN2CCNCC2)cc1` (centres undefined), the GI50 was 1670 nM and the TGI turned out to be 3.1 µM.

In turn, `CCC1C[N+]23CCc4c([nH]c5ccccc45)C2CC1CC3` (centres undefined) had a TGI of 48.9 µM.

The compound `CC1=C2C(O)C(C(C)C(=O)N(C)C)CCC2(C)C=CC1=O` (centres undefined) yielded a TGI greater than 100 µM.

With `Cc1ccc(S(=O)(=O)Nc2cccc3c(=O)[nH]cnc23)cc1`, the TGI is greater than 100 µM.

`O=C1C=C(C2OC(CO)C(O)C2O)C(=O)N1` (centres undefined) showed a TGI greater than 100 µM.

The subject of the next assay is UO-31 renal. The assay is described as follows: inhibition of tumour cell growth, NCI panel, 48 h.
On to `C=C1C(=O)OC2/C=C(\C(=O)O)CC/C=C(\C)CC(OC(=O)/C=C(\C)CC)C12` (centres undefined), for which the TGI was 41.9 µM.

Turning to `O=C(c1ccccc1)c1ccc2n[se]nc2c1`, the TGI is greater than 100 µM.

On to `CC(=O)C(C(c1ccccc1)N1CCOCC1)N1CCOCC1` (centres undefined), for which the TGI was greater than 100 µM.

`CCOP(=Nc1ccc(N(C)C)cc1)(OCC)OCC` had a TGI greater than 100 µM.

Turning to `CCCC(C)c1ccc(OCCCCCCN2CCNCC2)cc1` (centres undefined), the GI50 was 4.32 µM and the TGI came out at 20.3 µM.

With `CCC1C[N+]23CCc4c([nH]c5ccccc45)C2CC1CC3` (centres undefined), the TGI was greater than 100 µM.

`CC1=C2C(O)C(C(C)C(=O)N(C)C)CCC2(C)C=CC1=O` (centres undefined) returned a TGI greater than 100 µM.

`Cc1ccc(S(=O)(=O)Nc2cccc3c(=O)[nH]cnc23)cc1` showed a TGI greater than 100 µM.

As to `O=C1C=C(C2OC(CO)C(O)C2O)C(=O)N1` (centres undefined), the TGI was greater than 100 µM.
